Measured values reported in US20220041681A1 (MEDIMMUNE LIMITED, priority 2016, published 2022).

System: Healthy volunteer
Assay: Phase 1 single-ascending dose study
Settings: for Median glucose peak after breakfast: 1 hour post breakfast, 3.5 hours post dose; for Median glucose peak after dinner: 1 hour post dinner, […] post dose; for Median glucose peak after lunch: 1 hour post lunch, 7 hours post dose; for Overall daily food intake compared with placebo: across breakfast, lunch and dinner
[1] = Total G933, N = 36, subjects n (%)

SMILES: CCCCCCCCCCCCCCCC(=O)N[C@@H](CCC(=O)NCCCC[C@H](NC(=O)[C@H](CC(=O)O)NC(=O)[C@H](CO)NC(=O)C(NC(=O)[C@H](Cc1ccccc1)NC(=O)C(NC(=O)CNC(=O)[C@H](CCC(N)=O)NC(=O)[C@H](CO)NC(=O)[C@@H](N)Cc1cnc[nH]1)[C@@H](C)O)[C@@H](C)O)C(=O)N[C@@H](CO)C(=O)N[C@@H](CCC(=O)O)C(=O)N[C@@H](Cc1ccc(O)cc1)C(=O)N[C@@H](CC(C)C)C(=O)N[C@@H](CC(=O)O)C(=O)N[C@@H](CO)C(=O)N[C@@H](CCC(=O)O)C(=O)N[C@@H](CCCNC(=N)N)C(=O)N[C@@H](C)C(=O)N[C@@H](CCCNC(=N)N)C(=O)N[C@@H](CC(=O)O)C(=O)N[C@@H](Cc1ccccc1)C(=O)N[C@H](C(=O)N[C@@H](C)C(=O)N[C@@H](Cc1c[nH]c2ccccc12)C(=O)N[C@@H](CC(C)C)C(=O)N[C@@H](CCC(=O)O)C(=O)N[C@@H](C)C(=O)NCC(=O)NCC(=O)O)C(C)C)C(=O)O (some centres unmarked) [Peptide G933]
- TEAE: Gastrointestinal Disorders (150 μg, N = 6, subjects n (%)): 5 (83.3%)
- TEAE: Headache (150 μg, N = 6, subjects n (%)): 1 (16.7%)
- TEAE: Immune System Disorders (150 μg, N = 6, subjects n (%)): 0
- TEAE: Injury associated with device (150 μg, N = 6, subjects n (%)): 0
- TEAE: Injury poisoning and procedural complications (150 μg, N = 6, subjects n (%)): 0
- TEAE: Metabolism and nutrition disorders (150 μg, N = 6, subjects n (%)): 2 (33.3%)
- TEAE: Musculoskeletal and connective tissue disorders (150 μg, N = 6, subjects n (%)): 0
- TEAE: Musculoskeletal chest pain (150 μg, N = 6, subjects n (%)): 0
- TEAE: Nasopharyngitis (150 μg, N = 6, subjects n (%)): 0
- TEAE: Nausea (150 μg, N = 6, subjects n (%)): 4 (66.7%)
- TEAE: Nervous system disorders (150 μg, N = 6, subjects n (%)): 1 (16.7%)
- TEAE: Oropharyngeal pain (150 μg, N = 6, subjects n (%)): 1 (16.7%)
- TEAE: Procedural dizziness (150 μg, N = 6, subjects n (%)): 0
- TEAE: Respiratory, thoracic and mediastinal disorders (150 μg, N = 6, subjects n (%)): 1 (16.7%)
- TEAE: Seasonal allergy (150 μg, N = 6, subjects n (%)): 0
- TEAE: Subjects with at least one event (150 μg, N = 6, subjects n (%)): 5 (83.3%)
- TEAE: Ventricular extrasystoles (150 μg, N = 6, subjects n (%)): 0
- TEAE: Vomiting (150 μg, N = 6, subjects n (%)): 4 (66.7%)
- vomiting episodes (300 μg dose, 5 subjects): Thirty
- tolerability (300 μg single SC dose): not tolerated
- TEAE: Abdominal distension (300 μg, N = 6, subjects n (%)): 0
- TEAE: Abdominal pain (300 μg, N = 6, subjects n (%)): 0
- TEAE: Application site erosion (300 μg, N = 6, subjects n (%)): 0
- TEAE: Arrhythmia (300 μg, N = 6, subjects n (%)): 0
- TEAE: Atrioventricular block second degree (300 μg, N = 6, subjects n (%)): 0
- TEAE: Cardiac Disorders (300 μg, N = 6, subjects n (%)): 1 (16.7%)
- TEAE: Decreased appetite (300 μg, N = 6, subjects n (%)): 0
- TEAE: Diarrhea (300 μg, N = 6, subjects n (%)): 0
- TEAE: Dizziness (300 μg, N = 6, subjects n (%)): 1 (16.7%)
- TEAE: Gastrointestinal Disorders (300 μg, N = 6, subjects n (%)): 5 (83.3%)
- TEAE: Headache (300 μg, N = 6, subjects n (%)): 0
- TEAE: Immune System Disorders (300 μg, N = 6, subjects n (%)): 0
- TEAE: Injury associated with device (300 μg, N = 6, subjects n (%)): 1 (16.7%)
- TEAE: Injury poisoning and procedural complications (300 μg, N = 6, subjects n (%)): 0
- TEAE: Metabolism and nutrition disorders (300 μg, N = 6, subjects n (%)): 0
- TEAE: Musculoskeletal and connective tissue disorders (300 μg, N = 6, subjects n (%)): 0
- TEAE: Musculoskeletal chest pain (300 μg, N = 6, subjects n (%)): 0
- TEAE: Nasopharyngitis (300 μg, N = 6, subjects n (%)): 0
- TEAE: Nausea (300 μg, N = 6, subjects n (%)): 3 (50.0%)
- TEAE: Oropharyngeal pain (300 μg, N = 6, subjects n (%)): 0
- TEAE: Procedural dizziness (300 μg, N = 6, subjects n (%)): 0
- TEAE: Respiratory, thoracic and mediastinal disorders (300 μg, N = 6, subjects n (%)): 0
- TEAE: Seasonal allergy (300 μg, N = 6, subjects n (%)): 0
- TEAE: Subjects with at least one event (300 μg, N = 6, subjects n (%)): 5 (83.3%)
- TEAE: Ventricular extrasystoles (300 μg, N = 6, subjects n (%)): 1 (16.7%)
- TEAE: Vomiting (300 μg, N = 6, subjects n (%)): 5 (83.3%)
- TEAE: Abdominal distension [1]: 2 (5.6%)
- TEAE: Abdominal pain [1]: 1 (2.8%)
- TEAE: Application site erosion [1]: 1 (2.8%)
- TEAE: Arrhythmia [1]: 1 (2.8%)
- TEAE: Atrioventricular block second degree [1]: 1 (2.8%)
- TEAE: Cardiac Disorders [1]: 3 (8.3%)
- TEAE: Decreased appetite [1]: 2 (5.6%)
- TEAE: Diarrhea [1]: 1 (2.8%)
- TEAE: Dizziness [1]: 5 (13.9%)
- TEAE: Gastrointestinal Disorders [1]: 12 (33.3%)
- TEAE: Headache [1]: 4 (11.1%)
- TEAE: Immune System Disorders [1]: 1 (2.8%)
- TEAE: Injury associated with device [1]: 1 (2.8%)
- TEAE: Injury poisoning and procedural complications [1]: 1 (2.8%)
- TEAE: Metabolism and nutrition disorders [1]: 2 (5.6%)
- TEAE: Musculoskeletal and connective tissue disorders [1]: 1 (2.8%)
- TEAE: Musculoskeletal chest pain [1]: 1 (2.8%)
- TEAE: Nasopharyngitis [1]: 1 (2.8%)
- TEAE: Nausea [1]: 8 (22.2%)
- TEAE: Oropharyngeal pain [1]: 1 (2.8%)
- TEAE: Procedural dizziness [1]: 1 (2.8%)
- TEAE: Respiratory, thoracic and mediastinal disorders [1]: 1 (2.8%)
- TEAE: Seasonal allergy [1]: 1 (2.8%)
- TEAE: Subjects with at least one event [1]: 21 (58.3%)
- TEAE: Ventricular extrasystoles [1]: 1 (2.8%)
- TEAE: Vomiting [1]: 10 (27.8%)
- severity of treatment-emergent adverse events (all doses): Grade 1 (mild) or Grade 2 (moderate)
- overall daily food intake (all doses compared with placebo, in words): reduction in overall daily food intake
- plasma glucose levels (all doses, around meal times, in words): glucose lowering effect
- ADA positive subjects (baseline or post-baseline): No subjects were ADA positive
- tolerability with respect to nausea, vomiting, tachycardia and blood pressure (doses up to 150 μg): acceptable
- geometric mean t1/2 (single SC dose): 10 to 12 h
- Median diastolic BP maximum post dose change (single dose 5 μg): 13 mm Hg
- Number of subjects with vomiting (single dose 5 μg): 0(0)
- vomiting episodes (single dose 5 μg): 0(0)
- Median glucose peak after breakfast (single dose 5 μg): 6.2 mmol/L
- Median glucose peak after dinner (single dose 5 μg): 7.0 mmol/L
- Median glucose peak after lunch (single dose 5 μg): 4.9 mmol/L
- Overall daily food intake compared with placebo (single dose 5 μg): 100%
- Median diastolic BP maximum post dose change (single dose 10 μg): 8 mm Hg
- Number of subjects with vomiting (single dose 10 μg): 0(0)
- vomiting episodes (single dose 10 μg): 0(0)
- Median glucose peak after breakfast (single dose 10 μg): 5.8 mmol/L
- Median glucose peak after dinner (single dose 10 μg): 6.0 mmol/L
- Median glucose peak after lunch (single dose 10 μg): 5.1 mmol/L
- Overall daily food intake compared with placebo (single dose 10 μg): 100%
- Number of subjects with vomiting (single dose 30 μg): 0(0)
- vomiting episodes (single dose 30 μg): 0(0)
- Median glucose peak after breakfast (single dose 30 μg): 5.4 mmol/L
- Median glucose peak after dinner (single dose 30 μg): 5.2 mmol/L
- Median glucose peak after lunch (single dose 30 μg): 4.4 mmol/L
- Overall daily food intake compared with placebo (single dose 30 μg): 96%
- Median diastolic BP maximum post dose change (single dose 100 μg): 16 mm Hg
- Number of subjects with vomiting (single dose 100 μg): 1(1)
- vomiting episodes (single dose 100 μg): 1(1)
- Median glucose peak after breakfast (single dose 100 μg): 5.5 mmol/L
- Median glucose peak after dinner (single dose 100 μg): 5.2 mmol/L
- Median glucose peak after lunch (single dose 100 μg): 4.7 mmol/L
- Overall daily food intake compared with placebo (single dose 100 μg): 82%
- Median diastolic BP maximum post dose change (single dose 150 μg): 15 mm Hg
- Number of subjects with vomiting (single dose 150 μg): 4
- vomiting episodes (single dose 150 μg): 9
- Median glucose peak after breakfast (single dose 150 μg): 5.1 mmol/L
- Median glucose peak after dinner (single dose 150 μg): 5.2 mmol/L
- Median glucose peak after lunch (single dose 150 μg): 5.1 mmol/L
- Overall daily food intake compared with placebo (single dose 150 μg): 60%
- Median diastolic BP maximum post dose change (single dose 300 μg): 19 mm Hg
- Number of subjects with vomiting (single dose 300 μg): 5
- vomiting episodes (single dose 300 μg): 30
- Median glucose peak after breakfast (single dose 300 μg): 4.7 mmol/L
- Median glucose peak after dinner (single dose 300 μg): 4.9 mmol/L
- Median glucose peak after lunch (single dose 300 μg): 5.1 mmol/L
- Overall daily food intake compared with placebo (single dose 300 μg): 23%
